Data taken from US8367632B2, “Methods for reverting methylation by targeting methyltransferases” (Ohio State University Research Foundation, priority 2007, dated 2013).

How the values were obtained:
Type in all cases: cell-based, human
FHIT mRNA = FHIT mRNA level by qRT-PCR; details: A549 cells, 48 h after transfection
Procedure: (§1) To characterize effects of the methylation changes on gene expression, the mRNA expression levels of two TSGs, FHIT and WWOX, which are frequently silenced by promoter methylation in lung cancer^14 were analyzed.
(§2) Quantitative RT-PCR. Quantitative RT-PCR (qRT-PCR) analysis for miRNA s was performed in triplicate with the TaqMan MicroRNA assays kit (Applied Biosystems, Foster City, Calif.), according to the manufacturer's instructions. 18S RNA was used for normalization; qRT-PCR analyses for other genes of interest were performed as previously described. RNA was reverse transcribed to cDNA with gene-specific primers and IQ SYBR Green Supermix (Biorad, Hercules, Calif.). GAPDH served as normalization control. For the silencing of miR-29s, A549 and H1299 cells were transfected in 6-well plates by using Lipofectamine 2000 reagent (Invitrogen), according to the manufacturer's protocol, with 100 nM (final) of antisense miR-29a, 29b-1, 29c or scrambled antisense miR (Fidelity Systems, Gaithersburg, Md.).

DNMT3B 3′UTR = experiment: Luciferase reporter assay for targeting DNMT 3′UTRs (DNMT3B); details: A549 cells, 100 nM precursor miR, 24 h after transfection, with respect to the scrambled oligonucleotide
Text: (§3) To validate these miRNA-target interactions in vivo, the DNMT3A and DNTM3B complementary sites were cloned into the 3′UTR of the firefly luciferase gene and co-transfected with miR-29a, mi-R29b or miR-29c in […] (NSCLC) cells.
Luciferase reporter assay for targeting DNMT 3′UTRs. For luciferase reporter experiments a DNMT3A 3′UTR segment of 979 bp and a DNMT3B 3′UTR segment of 978 bp were amplified by PCR from human genomic DNA and inserted into the pGL3-control vector with SV40 promoter (Promega), using the XbaI site immediately […] from the stop codon of luciferase. The following sets of primers were used to generate specific fragments: […]
A549 cells were co-transfected in 12-well plates by using Lipofectamine 2000 reagent (Invitrogen), according to the manufacturer's protocol, with 0.4 μg of the firefly luciferase report vector and 0.08 μg of the control vector containing Renilla luciferase pRL-TK vector (Promega). For each well, 100 nM (final) of precursor miR-29a, 29b-1, 29c or scrambled miR (Ambion) was used. Firefly and Renilla luciferase activities were measured consecutively by using dual-luciferase assays (Promega), 24 h after the transfection. The experiments were performed in triplicate.

WWOX mRNA = WWOX mRNA level by qRT-PCR; details: A549 cells, 48 h after transfection
Procedure: as §1, §2

DNMT3A 3′UTR = experiment: Luciferase reporter assay for targeting DNMT 3′UTRs (DNMT3A); details: A549 cells, 100 nM precursor miR, 24 h after transfection, with respect to the scrambled oligonucleotide
Text: as §3
Luciferase reporter assay for targeting DNMT 3′UTRs. For luciferase reporter experiments a DNMT3A 3′UTR segment of 979 bp and a DNMT3B 3′UTR segment of 978 bp were amplified by PCR from human genomic DNA and inserted into the pGL3-control vector with SV40 promoter (Promega), using the XbaI site immediately […] from the stop codon of luciferase. The following sets of primers were used to generate specific fragments:
The amplified 3′UTR of DNMT3A contains an XbaI restriction site in position 583, so we cloned separately the upstream 3′UTR (DNMT3A 3′-UTRup=583 bp) and the downstream fragment (DNMT3A 3′-UTRdown=396 bp) into the pGL3 vectors. […]
A549 cells were co-transfected in 12-well plates by using Lipofectamine 2000 reagent (Invitrogen), according to the manufacturer's protocol, with 0.4 μg of the firefly luciferase report vector and 0.08 μg of the control vector containing Renilla luciferase pRL-TK vector (Promega). […] Firefly and Renilla luciferase activities were measured consecutively by using dual-luciferase assays (Promega), 24 h after the transfection. […]

Substance | increase of FHIT expression (mRNA) (FHIT mRNA) | luciferase activity (DNMT3B complementary site in 3′UTR of firefly luciferase) (DNMT3B 3′UTR) | increase of WWOX mRNA level (WWOX mRNA) | luciferase activity (DNMT3A complementary site in 3′UTR of firefly luciferase) (DNMT3A 3′UTR)
miR-29a: microRNA of the miR-29 family, SEQ ID NO: 1; transfected as precursor miR-29a (Ambion) (UAGCACCAUCUGAAAUCGGUU; listed as RNA, chemistry not given here) | ~65% | significantly reduced | ~40% | significantly reduced
miR-29c: microRNA of the miR-29 family, SEQ ID NO: 3; transfected as precursor miR-29c (Ambion) (UAGCACCAUUUGAAAUCGGU; listed as RNA, chemistry not given here) | ~74% | significantly reduced |  | significantly reduced
